Measured values from patent US7060707B2, “Isoquinoline derivatives” (Merck Patent GmbH, priority 2002, dated 2006).

melting point: 103 to 109 °C
Compound: Cc1ccnc(NCCCCC(=O)NNC(=O)N2CCc3ccccc3C2CC(=O)O)c1 (stereo not shown) [Example 4]
